Test results published in the METLIN SMRT retention time set (Domingo-Almenara et al. 2019).

Assay: gradient 5% acetonitrile 3 min, to 50% in 2 min, to 85% in 15 min, held 3 min, 100 µL/min
Details: column: Zorbax Extend-C18 2.1 x 50 mm; eluents: water / acetonitrile, 0.1% formic acid
In short: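 Pure standards were analyzed in mixtures of ~100 molecules using HPLC coupled to a quadrupole time-of-flight mass spectrometer, in both positive and negative ionization mode. Separation used a Zorbax Extend-C18 column (2.1 × 50 mm, 1.8 μm) at 100 μL/min, with water and acetonitrile each containing 0.1% formic acid. Dead and dwell volumes were 40 μL and 900 μL, and data were collected over 3 months. Retention time was read from computationally picked adduct peaks, each inspected manually.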

| RP-LC retention time [s] | Structure (SMILES) |
| --- | --- |
| 818 | COc1cc(OC)c(NC(=O)Cn2c(N(C)Cc3ccccc3)nc(C)cc2=O)cc1Cl |
| 810 | Cc1oc(-c2ccc(Cl)cc2)nc1CN1CCCC(C(=O)NC2CCCCCC2)C1 (stereo not drawn) |
| 669 | O=C(COc1ccc(Cl)cc1Cl)Nc1nnc(-c2ccncc2)o1 |
| 637 | CSc1ccc(CNC(=O)C2CCN(c3cncnc3N3CCOCC3)CC2)cc1 |
| 687 | O=C(Cn1cnc2nc(N3CCOCC3)ncc2c1=O)NCc1cccc(C(F)(F)F)c1 |
| 670 | Cc1cccc(-c2nc3cnccn3c2NCCC(=O)NC2CCCC2)c1 |
| 1010 | CCOC(=O)c1nc(N2CCN(c3ccccc3F)CC2)c2c(C)noc2n1 |
| 704 | COc1ccccc1OCCNC(=O)Cn1nc2c(cc1=O)CCCC2 |
| 766 | CC(C)N1CCN(Cc2ccc(C(=O)NCc3cccc(C(F)(F)F)c3)cc2)C(=O)C1=O |
| 589 | CC(C)CNC(=O)C1(CCO)CCN(Cc2ccccc2)C1 (stereo not drawn) |
| 966 | CC(=O)N1c2ccc(S(=O)(=O)N3CCCCC3)cc2CC1C(=O)Nc1ccc(C)c(C)c1 (stereo not drawn) |
| 830 | CCOc1ccc(CC(=O)N2CCC3(CC2)C(=O)N(C)c2ccccc23)cc1OCC |
| 729 | CCCCNC(=O)C1CCN(C(=O)Nc2ccc(NC(=O)Nc3ccccc3)cc2)CC1 |
| 943 | COc1ccc(-c2nc3c(s2)CN(C(=O)Nc2ccccc2OC)CC3)cc1 |
| 1180 | Fc1ccc(-c2noc(-c3ccc(N4CCC5(CC4)OCCO5)nc3)n2)cc1 |
| 1090 | Cc1nc2cc(-c3noc(-c4ccc(Br)o4)n3)ccc2o1 |
| 858 | CCNC(=O)c1cnn(-c2cc(-c3nc(C(C)C)no3)ccn2)c1C |
| 857 | CCOc1ccccc1-n1nnc(-c2nn3c(Cc4ccccc4)nnc3s2)c1C |
| 898 | CCOc1ccc(NC(=O)N2CCc3cn(CCOC)c4cccc(c34)C2)cc1 |
| 684 | COc1ccc(C(=O)Nc2cnn(C)c(=O)c2N2CCOCC2)cc1OC |
| 784 | Cc1cccc(OCc2nc(-c3ccc(-c4csc(C5CC5)n4)cc3)no2)c1 |
| 960 | Cc1c(C(=O)C(=O)Nc2cccc(F)c2)c2ccccc2n1C |
| 616 | CCOC(=O)c1noc2ncnc(Nc3cccc(F)c3)c12 |

Second part, the molecule before the results:

| Structure (SMILES) | RP-LC retention time [s] |
| --- | --- |
| Cc1ccn2c(NC(=O)c3ccccc3F)c(-c3ccccc3)nc2c1 | 653 |
| COC1CN(c2cccc(F)c2)C12CCN(Cc1ccc(C)o1)CC2 (stereo not drawn) | 745 |
| Cn1c(=O)sc2cc(S(=O)(=O)N3CCC(C(=O)Nc4ccc(F)cc4)CC3)ccc21 | 854 |
| COC(=O)c1cc2c(=O)n(CCc3cccs3)ccc2nc1C | 838 |
| Cc1cccc(C(C)C)c1NC(=O)C1CCN(S(C)(=O)=O)c2ccccc2O1 (stereo not drawn) | 957 |
| Cc1ccc2oc(-c3nnc(C(=O)NCc4ccc(C)o4)o3)c(C)c2c1 | 1100 |
| CCOc1ccccc1NC(=O)Cn1nc(C2CC2)cc1C(=O)N1CCCC1 | 850 |
| CSc1cnc(Nc2nc(-c3ccc(Br)cc3)cs2)nc1 | 1190 |
| Cc1ccc(F)cc1NC(=O)Cn1nc(N2CCC(C)CC2)c2ccccc2c1=O | 1180 |
| Cc1nc2ccn(Cc3ccco3)c(=O)c2cc1C(=O)NC1CCCC1 | 723 |
| COc1ccc(NC(=O)N(C)CC2CCOCC2)c(C)c1 | 670 |
| Cn1c(CNC(=O)C2(C)CCCCC(=O)N2)nc2ccccc21 (stereo not drawn) | 573 |
| O=C(NCc1cccnc1)C1CCCN(S(=O)(=O)c2cc(-c3noc(C4CCC4)n3)cs2)C1 (stereo not drawn) | 825 |
| Cc1c(C(=O)NC2CCCCC2)cnn1-c1cc(-c2nc(C3CC3)no2)ccn1 | 1060 |
| Cc1ccc(N2CC(c3nc(-c4ccc5c(c4)nc(C)c(=O)n5C)no3)CC2=O)cc1C (stereo not drawn) | 876 |
| COc1ccc(S(=O)(=O)Nc2cc3sc(=O)oc3c3ccccc23)cc1 | 894 |
| CCCOc1ccnc2c1c(=O)n(CC(=O)Nc1cc(C)on1)c(=O)n2C | 675 |
| CN(C)C(=O)COc1cc(O)c2c(=O)cc(-c3ccccc3)oc2c1 | 832 |
| COCCNC(=O)c1ccc(CNS(=O)(=O)c2cc(C)ccc2C)cc1 | 703 |
| Cc1cc(C)n(-c2ccc(C(=O)NCc3nc4ccccc4[nH]3)nn2)n1 | 564 |
